Patent US20250034159A1, “INHIBITORS OF EPIDERMAL GROWTH FACTOR RECEPTOR” (ORIC Pharmaceuticals, Inc., priority 2021, published 2025)
pIC50: −log10 of the molar value. Read-outs that look alike come from different tables or passages of the source.

Experiments:
[1] = target: recombinant human EGFR exon 19 deletion/C797S double mutant protein (Homo sapiens (Human), UniProt P00533, C797S/DEL746-750); experiment: Biological Activity Assay C: biochemical assay against EGFR exon 19 deletion/C797S protein (EGFR d19/CS)
recombinant human EGFR exon 19 deletion/C797S double mutant protein, sequence (P00533 other isoform, or with tags, fused parts or gaps C797S/del 1-668/del 746-750 limits assumed): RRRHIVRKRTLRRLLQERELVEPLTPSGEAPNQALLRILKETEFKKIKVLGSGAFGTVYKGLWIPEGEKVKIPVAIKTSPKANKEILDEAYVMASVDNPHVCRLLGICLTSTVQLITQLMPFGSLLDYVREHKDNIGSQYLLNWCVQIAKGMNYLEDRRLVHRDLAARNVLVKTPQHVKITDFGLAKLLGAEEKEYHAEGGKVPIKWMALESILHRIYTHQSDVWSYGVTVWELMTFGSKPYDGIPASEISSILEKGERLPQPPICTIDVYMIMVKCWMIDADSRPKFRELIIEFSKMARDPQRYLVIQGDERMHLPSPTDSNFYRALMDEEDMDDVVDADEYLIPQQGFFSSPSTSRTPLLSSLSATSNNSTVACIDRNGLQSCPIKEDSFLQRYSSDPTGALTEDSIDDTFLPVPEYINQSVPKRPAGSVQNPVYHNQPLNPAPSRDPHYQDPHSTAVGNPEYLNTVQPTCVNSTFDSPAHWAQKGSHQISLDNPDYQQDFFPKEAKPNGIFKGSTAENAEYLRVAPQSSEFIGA
Procedure, shortened: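 IC50 values were fitted with a 4-parameter model to reaction slopes taken from 90 kinetic reads spaced 120 s apart. The Phosphosens sensor/ATP working solution was 40 uM/4 mM, and compound was dosed as 16-point dilutions at 2.5% final DMSO.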

[2] = tested on: Ba/F3_EGFR WT cells; experiment: Biological Activity Assay D: BaF3 cell proliferation assay, EGFR wild-type (BaF3 WT); assay type: cell-based; conditions: Ba/F3 EGFR, read-out: BaF3 WT IC50
[3] = tested on: BaF3_EGFR LR/CS cells; experiment: Biological Activity Assay D: BaF3 cell proliferation assay, EGFR L858R/C797S mutant (BaF3 LR/CS); assay type: cell-based; conditions: Ba/F3 EGFR, read-out: BaF3 LR/CS IC50
[4] = tested on: BaF3_EGFR d19/CS cells; experiment: Biological Activity Assay D: BaF3 cell proliferation assay, EGFR exon 19 deletion/C797S (BaF3 d19/CS); assay type: cell-based; conditions: Ba/F3 EGFR, read-out: BaF3 d19/CS IC50
[5] = Ba/F3_EGFR WT cells, ~72 hours, CellTiter-Glo
[6] = BaF3_EGFR LR/CS cells, ~72 hours, CellTiter-Glo
[7] = BaF3_EGFR d19/CS cells, ~72 hours, CellTiter-Glo

Structure (SMILES) | pIC50 [1] | pIC50 [2, 5] | pIC50 [3, 6] | pIC50 [4, 7] | pIC50 ([2]; 72 h) | pIC50 ([3]; 72 h) | pIC50 ([4]; 72 h)
Cc1cnc(-c2cc3c(-c4cn(C5CS(=O)(=O)C5)nc4-c4ccc(F)cc4)ncnc3o2)o1 [Example 234, 3-{3-(4-fluorophenyl)-4-[6-(5-methyl-1,3-oxazol-2-yl)furo[2,3-d]pyrimidin-4-yl]-1H-pyrazol-1-yl}-1λ6-thietane-1,1-dione] | 8.44 | 5.67 | 6.36 | 6.51 |  |  | 
CNC(=O)c1cncc(-c2cc3c(-c4cn(C5CS(=O)(=O)C5)nc4-c4ccc(F)cc4)ncnc3o2)c1 [Example 239, 5-{4-[1-(1,1-dioxo-1λ6-thietan-3-yl)-3-(4-fluorophenyl)-1H-pyrazol-4-yl]furo[2,3-d]pyrimidin-6-yl}-N-methylpyridine-3-carboxamide] | 8.76 | 4.90 | 5.83 | 5.89 |  |  | 
Cc1ccc(-c2cc3c(-c4cn(C5CS(=O)(=O)C5)nc4-c4ccc(F)cc4)ncnc3o2)c(C)n1 [Example 240, 3-{4-[6-(2,6-dimethylpyridin-3-yl)furo[2,3-d]pyrimidin-4-yl]-3-(4-fluorophenyl)-1H-pyrazol-1-yl}-16-thietane-1,1-dione] | 9.47 | 5.12 | 7.24 | 7.18 |  |  | 
Cc1cccnc1-c1cc2c(-c3cn(C4CS(=O)(=O)C4)nc3-c3ccc(F)cc3)ncnc2o1 [Example 241, 3-{3-(4-fluorophenyl)-4-[6-(3-methylpyridin-2-yl)furo[2,3-d]pyrimidin-4-yl]-1H-pyrazol-1-yl}-1λ6-thietane-1,1-dione] | 8.92 | 5.82 | 6.72 | 6.88 |  |  | 
Cc1cc(-c2cc3c(-c4cn(C5CS(=O)(=O)C5)nc4-c4ccc(F)cc4)ncnc3o2)n(C)n1 [Example 243, 3-{4-[6-(1,3-dimethyl-1H-pyrazol-5-yl)furo[2,3-d]pyrimidin-4-yl]-3-(4-fluorophenyl)-1H-pyrazol-1-yl}-16-thietane-1,1-dione] | 9.43 | 5.92 | 7.03 | 7.06 |  |  | 
Cn1cc(-c2cc3c(-c4cn(C5CS(=O)(=O)C5)nc4-c4ccc(F)cc4)ncnc3o2)nn1 [Example 244, 3-{3-(4-fluorophenyl)-4-[6-(1-methyl-1H-1,2,3-triazol-4-yl)furo[2,3-d]pyrimidin-4-yl]-1H-pyrazol-1-yl}-16-thietane-1,1-dione] | 9.26 | 5.98 | 7.04 | 7.02 |  |  | 
O=S1(=O)CC(n2cc(-c3ncnc4oc(-c5nccs5)cc34)c(-c3ccc(F)cc3)n2)C1 [Example 248, 3-{3-(4-fluorophenyl)-4-[6-(1,3-thiazol-2-yl)furo[2,3-d]pyrimidin-4-yl]-1H-pyrazol-1-yl}-16-thietane-1,1-dione] | 9.38 | 5.59 | 7.00 | 7.03 |  |  | 
Cc1cccc(-c2cc3c(-c4cn(C5CS(=O)(=O)C5)nc4-c4ccc(F)cc4)ncnc3o2)n1 [Example 253, 3-{3-(4-fluorophenyl)-4-[6-(6-methylpyridin-2-yl)furo[2,3-d]pyrimidin-4-yl]-1H-pyrazol-1-yl}-16-thietane-1,1-dione] | 9.70 |  |  |  | 5.11 | 7.29 | 7.06
CC(C)(O)Cn1cc(-c2ncnc3oc(-c4cccnc4)cc23)c(-c2ccc(F)cc2)n1 [Example 255, 1-{3-(4-fluorophenyl)-4-[6-(pyridin-3-yl)furo[2,3-d]pyrimidin-4-yl]-1H-pyrazol-1-yl}-2-methylpropan-2-ol] | 9.33 | 5.77 | 7.29 | 7.49 |  |  | 
CC(=O)N1C=C(c2cc3c(-c4cn(CC(C)(C)O)nc4-c4ccc(F)cc4)ncnc3o2)CCC1 [Example 260, 1-[5-{4-[3-(4-fluorophenyl)-1-(2-hydroxy-2-methylpropyl)-1H-pyrazol-4-yl]furo[2,3-d]pyrimidin-6-yl}-3,4-dihydropyridin-1 (2H)-yl]ethan-1-one] | 9.46 | 5.72 | 7.77 | 7.48 |  |  | 

Further compounds by rising pIC50 [1], results first:

pIC50 [1] | pIC50 [2, 5] | pIC50 [3, 6] | pIC50 [4, 7] | Structure (SMILES) | pIC50 ([2]; 72 h) | pIC50 ([3]; 72 h) | pIC50 ([4]; 72 h)
9.51 | 5.49 | 7.09 | 7.16 | Cc1ccccc1-c1cc2c(-c3cn(C4CS(=O)(=O)C4)nc3-c3ccc(F)cc3)ncnc2o1 [Example 245, 3-{3-(4-fluorophenyl)-4-[6-(2-methylphenyl)furo[2,3-d]pyrimidin-4-yl]-1H-pyrazol-1-yl}-16-thietane-1,1-dione] |  |  | 
9.60 | 5.35 | 6.99 | 6.99 | Cc1ncccc1-c1cc2c(-c3cn(C4CS(=O)(=O)C4)nc3-c3ccc(F)cc3)ncnc2o1 [Example 249, 3-{3-(4-fluorophenyl)-4-[6-(2-methylpyridin-3-yl)furo[2,3-d]pyrimidin-4-yl]-1H-pyrazol-1-yl}-1λ6-thietane-1,1-dione] |  |  | 
9.62 | 6.08 | 7.38 | 7.38 | O=S1(=O)CC(n2cc(-c3ncnc4oc(-c5ccsn5)cc34)c(-c3ccc(F)cc3)n2)C1 [Example 235, 3-{3-(4-fluorophenyl)-4-[6-(1,2-thiazol-3-yl)furo[2,3-d]pyrimidin-4-yl]-1H-pyrazol-1-yl}-1λ6-thietane-1,1-dione] |  |  | 
9.70 | 6.13 | 8.09 | 7.89 | Cc1nn(C)cc1-c1cc2c(-c3cn(CC(C)(C)O)nc3-c3ccc(F)cc3)ncnc2o1 [Example 251, 1-{4-[6-(1,3-dimethyl-1H-pyrazol-4-yl)furo[2,3-d]pyrimidin-4-yl]-3-(4-fluorophenyl)-1H-pyrazol-1-yl}-2-methylpropan-2-ol] |  |  | 
9.70 | 5.99 | 7.74 | 7.68 | CC(C)(O)Cn1cc(-c2ncnc3oc(-c4ccccn4)cc23)c(-c2ccc(F)cc2)n1 [Example 257, 1-{3-(4-fluorophenyl)-4-[6-(pyridin-2-yl)furo[2,3-d]pyrimidin-4-yl]-1H-pyrazol-1-yl}-2-methylpropan-2-ol] |  |  | 
9.72 | 6.39 | 8.28 | 7.95 | Cn1cc(-c2cc3c(-c4cn([C@H]5C[C@@H](S(C)(=O)=O)C5)nc4-c4ccc(F)cc4)ncnc3o2)cn1 [Example 256, 4-{3-(4-fluorophenyl)-1-[(1s,3s)-3-(methanesulfonyl)cyclobutyl]-1H-pyrazol-4-yl}-6-(1-methyl-1H-pyrazol-4-yl)furo[2,3-d]pyrimidine] |  |  | 
9.74 | 6.27 | 8.08 | 7.97 | Cc1nn(C)cc1-c1cc2c(-c3cn(C4CS(=O)(=O)C4)nc3-c3ccc(F)cc3)ncnc2o1 [Example 242, 3-{4-[6-(1,3-dimethyl-1H-pyrazol-4-yl)furo[2,3-d]pyrimidin-4-yl]-3-(4-fluorophenyl)-1H-pyrazol-1-yl}-16-thietane-1,1-dione] |  |  | 
9.80 | 6.03 | 7.95 | 7.77 | Cc1nc(-c2cc3c(-c4cn(C5CS(=O)(=O)C5)nc4-c4ccc(F)cc4)ncnc3o2)cs1 [Example 236, 3-{3-(4-fluorophenyl)-4-[6-(2-methyl-1,3-thiazol-4-yl)furo[2,3-d]pyrimidin-4-yl]-1H-pyrazol-1-yl}-16-thietane-1,1-dione] |  |  | 
9.80 | 6.01 | 7.90 | 7.73 | Cc1c(-c2cc3c(-c4cn(CC(C)(C)O)nc4-c4ccc(F)cc4)ncnc3o2)cnn1C [Example 258, 1-{4-[6-(1,5-dimethyl-1H-pyrazol-4-yl)furo[2,3-d]pyrimidin-4-yl]-3-(4-fluorophenyl)-1H-pyrazol-1-yl}-2-methylpropan-2-ol] |  |  | 
9.96 | 6.35 | 8.52 | 8.30 | Cn1cnc(-c2cc3c(-c4cn(CC(C)(C)O)nc4-c4ccc(F)cc4)ncnc3o2)c1 [Example 254, 1-{3-(4-fluorophenyl)-4-[6-(1-methyl-1H-imidazol-4-yl)furo[2,3-d]pyrimidin-4-yl]-1H-pyrazol-1-yl}-2-methylpropan-2-ol] |  |  | 
10.00 | 6.30 | 8.35 | 7.84 | Cn1cnc(-c2cc3c(-c4cn([C@H]5C[C@@H](S(C)(=O)=O)C5)nc4-c4ccc(F)cc4)ncnc3o2)c1 [Example 259, 4-{3-(4-fluorophenyl)-1-[(1s,3s)-3-(methanesulfonyl)cyclobutyl]-1H-pyrazol-4-yl}-6-(1-methyl-1H-imidazol-4-yl)furo[2,3-d]pyrimidine] |  |  | 
10.05 | 6.20 | 8.05 | 7.66 | Cc1nn(C)c(C)c1-c1cc2c(-c3cn(CC(C)(C)O)nc3-c3ccc(F)cc3)ncnc2o1 [Example 252, 1-{3-(4-fluorophenyl)-4-[6-(1,3,5-trimethyl-1H-pyrazol-4-yl)furo[2,3-d]pyrimidin-4-yl]-1H-pyrazol-1-yl}-2-methylpropan-2-ol] |  |  | 
10.30 | 6.16 | 8.45 | 8.03 | Cn1cc(-c2cc3c(-c4cn(C5CS(=O)(=O)C5)nc4-c4ccc(F)cc4)ncnc3o2)cn1 [Example 250, 3-{3-(4-fluorophenyl)-4-[6-(1-methyl-1H-pyrazol-4-yl)furo[2,3-d]pyrimidin-4-yl]-1H-pyrazol-1-yl}-16-thietane-1,1-dione] |  |  | 
